# Read-outs that look alike come from different tables or passages of the source.
# Legend:
# [1] = test system: Mycoplasma synoviae (MS) F10-2as; assay: In vitro sensitivity test (liquid dilution method); format: cell-based; conditions: 37°C, 7 days
# How it was run: (§1)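 Bacteria were of animal origin. MS strains were grown by liquid dilution in Frey medium with 12 % pig-serum and 0.01 % βNAD at 37°C for 7 days. S.au was tested by agar dilution on Mueller Hinton agar, 37°C for 20 to 24 hours. P.pis was grown on 1.5 % NaCl heart infusion agar at 25°C for 40 to 48 hours.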
# [2] = test system: Mycoplasma hyopneumoniae (Mh) ST-11; assay: In vitro sensitivity test (liquid dilution method); format: cell-based; conditions: 37°C, 7 days
# [3] = test system: Mycoplasma gallisepticum (MG) T-7-T, TS-resistant strain isolated from the field; assay: In vitro sensitivity test (liquid dilution method); format: cell-based; conditions: 37°C, 7 days
# [4] = test system: Mycoplasma synoviae (MS) 1853; assay: In vitro sensitivity test (liquid dilution method); format: cell-based; conditions: 37°C, 7 days
# How it was run: as §1
# [5] = test system: Mycoplasma gallisepticum (MG) S6; assay: In vitro sensitivity test (liquid dilution method); format: cell-based; conditions: 37°C, 7 days
# [6] = test system: H.pp (otherwise called Actinobacillus pleuropneumoniae) strain M-1; assay: Experimental H.pp infection to pig, through injection; format: in vivo; conditions: injection to thigh muscle one time, dissection 6 days after inoculation
# Protocol: (§2) In these experiments, the compound (I) was applied to the designated animals by (1) oral administration, (2) incorporation into baits and (3) intramuscular injection, the details of which are explained below.
# (3) Preparation of the MG infected fowls was performed in the same manner as in (1) above. Infection of H.pp (otherwise called Actinobacillus pleuropneumoniae) to cause pleuropneumonia in pig was performed by inoculating 5 ml of a fresh cultured strain (i.e. M-1) of H.pp to each nasopharyngeal of some 45 days pigs, each weighing 4 to 9 kg (4 to 5 pigs/group), followed by injection of the test compounds to each thigh muscle at a designated volume one time. Pigs were dissected 6 days after the inoculation. The evaluation of the antimicrobial activity was made by observation of the pneumonia symptomes in air sacs, number of dead body and degree of nodosity in air sacks on dissection.
# H.pg strain (i.e. 221) = assay: Experimental H.pg infection to chicken, through bait; format: in vivo; conditions: 28-days chicken infected with 4 x 10⁸ CFU/fowl, dissection, 10th day after inoculation
# Text: as §2
# [7] = test system: TS-resistant strain of MG; format: in vivo, chicken; conditions: for Number of infected fowl/Number of fowl tested: 3.5 x 10³ CFU/fowl
# TS-resistant MG [8] = assay: Experimental MG infection to chicken, through bait; format: in vivo; conditions: 9-days chicken; for Number of fowl having air sack lesions: 1.8 x 10³ CFU/fowl; for Number of infected fowl/Number of fowl tested: 6.6 x 10³ CFU/fowl, dissection 6th day after inoculation
# [9] = test system: Staphylococcus aureus (S.au) 209P; assay: In vitro sensitivity test (agar dilution method); format: cell-based; conditions: 37°C, 20 to 24 hours
# How it was run: (§3)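 MS (liquid dilution): Frey medium + 12 % pig-serum + 0.01 % βNAD, 37°C, 7 days. S.au (agar dilution): Mueller Hinton agar, 37°C, 20 to 24 hours. P.pis: heart infusion agar + 1.5 % NaCl, 25°C, 40 to 48 hours. All strains animal-origin.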
# [10] = test system: Escherichia coli (E.coli) JC-2; assay: In vitro sensitivity test (agar dilution method); format: cell-based; conditions: 37°C, 20 to 24 hours
# [11] = test system: Bordetella bronchiseptica (B.br) ABU-1; assay: In vitro sensitivity test (agar dilution method); format: cell-based; conditions: 37°C, 20 to 24 hours
# [12] = test system: Escherichia coli (E.coli) E-17, chicken-origin strain isolated from the field; assay: In vitro sensitivity test (agar dilution method); format: cell-based; conditions: 37°C, 20 to 24 hours
# How it was run: as §3
# [13] = test system: Hemophilus paragallinarum (H.pg) 221; assay: In vitro sensitivity test (agar dilution method); format: cell-based; conditions: agar dilution, 37°C, 20 hours, 10 % CO₂
# [14] = test system: Hemophilus pleuropneumonia (H.pp) M-1; assay: In vitro sensitivity test (agar dilution method); format: cell-based; conditions: 37°C, 20 hours, 10 % CO₂
# [15] = test system: Hemophilus paragallinarum (H.pg) S-1; assay: In vitro sensitivity test (agar dilution method); format: cell-based; conditions: agar dilution, 37°C, 20 hours, 10 % CO₂
# TS-resistant MG [16] = assay: Experimental MG infection to chicken, through injection; format: in vivo; conditions: 5 fowl tested, 10-days chicken, 3.1 x 10³ CFU/fowl
# [17] = test system: Pasteurella piscicida (P.pis) No. 2; assay: In vitro sensitivity test; format: cell-based; conditions: 25°C, 40 to 48 hours
# How it was run: as §1
# Acute toxicity (LD50) = conditions: in vivo, read-out: LD₅₀
# Text: The compounds (I) according to the invention show a higher antimicrobial activity than the control or commercially available antimicrobial agents with a smaller dosage. […]
# [18] = test system: Salmonella typhimurium (S.typhi) 13311; assay: In vitro sensitivity test (agar dilution method); format: cell-based; conditions: 37°C, 20 to 24 hours
structure (smiles),measurement,setting,value
"CCN1CCN(c2cc3c(cc2F)c(=O)c(C(=O)O)cn3C2CC2)CC1 [ERFX, Enrofuroxasin®, reference compound]",In vitro Sensitivity Test MS F10-2as,[1],3.13 µg/ml
same,In vitro Sensitivity Test Mh ST-11,[2],0.05 µg/mL
same,In vitro Sensitivity Test MG T-7-T,[3],0.1 µg/mL
same,In vitro Sensitivity Test MS 1853,[4],0.1 µg/mL
same,In vitro Sensitivity Test MG S6,[5],0.1 µg/mL
same,Number of pig died or developed dyspnea/Number of pig tested,[6]; Dose 5 mg/kg,0/4
same,Number of pig having nodi/Number of pig tested,[6]; Dose 5 mg/kg,0/4
same,Number of pig died or developed dyspnea/Number of pig tested,[6]; Dose 10 mg/kg,0/4
same,Number of pig having nodi/Number of pig tested,[6]; Dose 10 mg/kg,0/4
same,Effective concentration to prevent pituita,H.pg strain (i.e. 221),7.8 ppm/day
same,Number of infected fowl/Number of fowl tested,"[7]; oral 1.56 mg/kg, 9-days chicken",2/5
same,Number of fowl having air sack lesions,"[7]; oral 3.13 mg/kg, 9-days chicken, 2.2 x 10³ CFU/fowl",2
same,Number of infected fowl/Number of fowl tested,"[7]; oral 3.13 mg/kg, 9-days chicken",0/5
same,Number of fowl having air sack lesions,"[7]; oral 6.25 mg/kg, 9-days chicken, 1.7 x 10³ CFU/fowl",1
same,Number of fowl having air sack lesions,"[7]; oral 6.25 mg/kg, 9-days chicken, 2.2 x 10³ CFU/fowl",0
same,Number of infected fowl/Number of fowl tested,"[7]; oral 6.25 mg/kg, 9-days chicken",0/5
same,Number of fowl having air sack lesions,"[7]; oral 6.25 mg/kg, 10-days chicken, 1.2 x 10³ CFU/fowl",2
same,Number of fowl having air sack lesions,"[7]; oral 6.25 mg/kg, 10-days chicken, 3.0 x 10³ CFU/fowl",2
same,Number of fowl having air sack lesions,"[7]; oral 12.5 mg/kg, 9-days chicken, 1.7 x 10³ CFU/fowl",0
same,Number of fowl having air sack lesions,"[7]; oral 12.5 mg/kg, 9-days chicken, 2.2 x 10³ CFU/fowl",0
same,Number of fowl having air sack lesions,"[7]; oral 12.5 mg/kg, 10-days chicken, 1.2 x 10³ CFU/fowl",0
same,Number of fowl having air sack lesions,"[7]; oral 12.5 mg/kg, 10-days chicken, 3.0 x 10³ CFU/fowl",0
same,Number of fowl having air sack lesions,"[7]; oral 25.0 mg/kg, 9-days chicken, 1.7 x 10³ CFU/fowl",0
same,Number of fowl having air sack lesions,"[7]; oral 25.0 mg/kg, 10-days chicken, 1.2 x 10³ CFU/fowl",0
same,Number of fowl having air sack lesions,"[7]; oral 25.0 mg/kg, 10-days chicken, 3.0 x 10³ CFU/fowl",0
same,complete inihibition of the lesions in air sac at a concentration of,"[7]; oral administration, MG-infected chicken",12.5 mg/kg
same,Number of fowl having air sack lesions,TS-resistant MG [8]; bait 15.6 ppm/Day,1
same,Number of fowl having air sack lesions,TS-resistant MG [8]; bait 31.3 ppm/Day,0
same,Number of infected fowl/Number of fowl tested,TS-resistant MG [8]; bait 31.3 ppm/Day,1/7
same,Number of fowl having air sack lesions,TS-resistant MG [8]; bait 62.5 ppm/Day,0
same,Number of infected fowl/Number of fowl tested,TS-resistant MG [8]; bait 62.5 ppm/Day,0/7
same,Number of infected fowl/Number of fowl tested,TS-resistant MG [8]; bait 125 ppm/Day,0/7
same,In vitro Sensitivity Test S.au 209P,[9],0.1 µg/mL
same,In vitro Sensitivity Test E.coli JC-2,[10],0.1 µg/mL
same,In vitro Sensitivity Test B.br ABU-1,[11],0.1 µg/mL
same,In vitro Sensitivity Test E.coli E-17,[12],0.1 µg/ml
same,In vitro Sensitivity Test H.pg 221,[13],0.1 µg/mL
same,In vitro Sensitivity Test H.pp M-1,[14],0.2 µg/mL
same,In vitro Sensitivity Test H.pg S-1,[15],0.2 µg/mL
same,Number of fowl having air sack lesions,TS-resistant MG [16]; Dose 1.56 mg/kg,3
same,Number of fowl having air sack lesions,TS-resistant MG [16]; Dose 3.13 mg/kg,2
CNCC12CCCC1CN(c1c(F)cc3c(=O)c(C(=O)O)cn(C4CC4)c3c1F)C2.Cl (stereo not shown) [I-5],In vitro Sensitivity Test P.pis No. 2,[17],1.56 µg/mL
same,In vitro Sensitivity Test MS F10-2as,[1],0.2 µg/ml
same,Number of pig died or developed dyspnea/Number of pig tested,[6]; Dose 10 mg/kg,0/4
same,Number of pig having nodi/Number of pig tested,[6]; Dose 10 mg/kg,0/4
same,LD50,"Acute toxicity (LD50); ip, Mouse (B6C3F₁, male), i.p.",200 mg/kg
same,LD50,"Acute toxicity (LD50); po, Chicken ( -days), p.o.",500 mg/kg
same,LD50,"Acute toxicity (LD50); po, Mouse (B6C3F₁, male), p.o.",2000 mg/kg
same,Effective concentration to prevent pituita,H.pg strain (i.e. 221),1.56 ppm/day
same,antimicrobial activity compared with ERFX,"[7]; in vivo, po",two times more effective than ERFX
same,complete inihibition of the lesions in air sac at a concentration of,"[7]; in vivo, po",about 3.13 mg/kg
same,Infectious index Left air sack +,"[7]; in vivo, po, 1.56 mg/kg",0
same,Infectious index Left air sack ++,"[7]; in vivo, po, 1.56 mg/kg",0
same,Infectious index Left air sack +++,"[7]; in vivo, po, 1.56 mg/kg",0
same,Infectious index Left air sack -,"[7]; in vivo, po, 1.56 mg/kg",4
same,Infectious index Right air sack +,"[7]; in vivo, po, 1.56 mg/kg",0
same,Infectious index Right air sack ++,"[7]; in vivo, po, 1.56 mg/kg",1
same,Infectious index Right air sack +++,"[7]; in vivo, po, 1.56 mg/kg",1
same,Infectious index Right air sack -,"[7]; in vivo, po, 1.56 mg/kg",2
same,Number of fowl having air sack lesions,"[7]; in vivo, po, 1.56 mg/kg",2
same,Infectious index Left air sack +,"[7]; in vivo, po, 3.13 mg/kg",0
same,Infectious index Left air sack ++,"[7]; in vivo, po, 3.13 mg/kg",0
same,Infectious index Left air sack +++,"[7]; in vivo, po, 3.13 mg/kg",0
same,Infectious index Left air sack -,"[7]; in vivo, po, 3.13 mg/kg",5
same,Infectious index Right air sack +,"[7]; in vivo, po, 3.13 mg/kg",0
same,Infectious index Right air sack ++,"[7]; in vivo, po, 3.13 mg/kg",0
same,Infectious index Right air sack +++,"[7]; in vivo, po, 3.13 mg/kg",0
same,Infectious index Right air sack -,"[7]; in vivo, po, 3.13 mg/kg",5
same,Number of fowl having air sack lesions,"[7]; in vivo, po, 3.13 mg/kg",0
same,Infectious index Left air sack +,"[7]; in vivo, po, 6.25 mg/kg",0
same,Infectious index Left air sack ++,"[7]; in vivo, po, 6.25 mg/kg",0
same,Infectious index Left air sack +++,"[7]; in vivo, po, 6.25 mg/kg",0
same,Infectious index Left air sack -,"[7]; in vivo, po, 6.25 mg/kg",5
same,Infectious index Right air sack +,"[7]; in vivo, po, 6.25 mg/kg",0
same,Infectious index Right air sack ++,"[7]; in vivo, po, 6.25 mg/kg",0
same,Infectious index Right air sack +++,"[7]; in vivo, po, 6.25 mg/kg",0
same,Infectious index Right air sack -,"[7]; in vivo, po, 6.25 mg/kg",5
same,Number of fowl having air sack lesions,"[7]; in vivo, po, 6.25 mg/kg",0
same,Infectious index Left air sack +,"[7]; in vivo, po, 25 mg/kg",0
same,Infectious index Left air sack ++,"[7]; in vivo, po, 25 mg/kg",0
same,Infectious index Left air sack +++,"[7]; in vivo, po, 25 mg/kg",0
same,Infectious index Left air sack -,"[7]; in vivo, po, 25 mg/kg",5
same,Infectious index Right air sack +,"[7]; in vivo, po, 25 mg/kg",0
same,Infectious index Right air sack ++,"[7]; in vivo, po, 25 mg/kg",0
same,Infectious index Right air sack +++,"[7]; in vivo, po, 25 mg/kg",0
same,Infectious index Right air sack -,"[7]; in vivo, po, 25 mg/kg",5
same,Number of fowl having air sack lesions,"[7]; in vivo, po, 25 mg/kg",0
same,In vitro Sensitivity Test S.typhi 13311,[18],0.2 µg/mL

# From patent publication EP0429304A2, “Pyridone-carboxylic acid derivatives and their use as veterinary medicines” (SHIONOGI SEIYAKU KABUSHIKI KAISHA trading under the name of …, priority 1989, dated 1991)
